Patent publication US20170290852A1, “MICELLE FORMULATIONS OF AMPHOTERICIN B” (Wisconsin Alumni Research Foundation, priority 2016, published 2017)
In brackets after ≈: the same amount, converted by molar mass.

Legend:
[1] = test system: C. albicans Gu5 (ATCC MYA-574); assay: Minimum inhibitory concentration (MIC); type: cell-based; conditions: for 5-FC the concentration inhibiting ≧50% by absorbance
Procedure: (§1) To prepare the inoculation, the fungal strains were cultured for approximately 24 hours on Sabouraud dextrose agar (SDA) plates were diluted to a 0.5 McFarland standard (1-5×10^6 CFU/mL) in sterile normal saline and diluted 100-fold in yeast peptone dextrose (YPD). Inoculum was added to serial dilutions of AmB in 96-well plates, following the microplate dilution method. Plates were sealed with Breathe Easier membranes (Sigma Aldrich, St. Louis, Mo.). ATCC 9763 or K1 was incubated at 30° C. or 37° C., respectively, for 18-20 hours. […] SDA was prepared with 1% peptone, 4% glucose, and 1.5% agar in deionized water. YPD media was prepared with 1% yeast extract, 2% peptone, and 2% glucose in deionized water. Autoclaving was used to sterilize media.
(§2) For 5-FC, the concentration necessary to inhibit ≧50% as determined by absorbance is reported.

[2] = test system: C. albicans SC5314 (ATCC MYA-2876); assay: Minimum inhibitory concentration (MIC); type: cell-based; conditions: for 5-FC the concentration inhibiting ≧50% by absorbance
Procedure: as §1, §2

[3] = test system: C. albicans strain K1; assay: Minimum inhibitory concentration (MIC); type: cell-based; conditions: K1 (Example 6); for 5-FC the concentration inhibiting ≧50% by absorbance
Procedure: as §1, §2

[4] = test system: K1; assay: Neutropenic mouse model of disseminated candidiasis; type: in vivo, ICR/Swiss mice; conditions: 48 hours; 72 mg/kg 5-FC
[5] = test system: bovine red blood cells; conditions: 5-FC alone, 25-100 μg/ml

- MIC [1]: 81 µg/mL (≈ 627 µM)
- MIC [2]: 20 µg/mL (≈ 155 µM)
- MIC [3]: 64 µg/mL (≈ 496 µM)
Structure (SMILES): Nc1nc(=O)[nH]cc1F [5-FC, 5-fluorocytosine]
- fungal burden of the control group relative to treated group [4]: 1.2 times
- hemolytic activity [5]: < 0.4%
